Columns and labels:
T24 cells = assay type: cell-based, human
[1] = Binding of Fe^3+ to BCG: zeta potential (Zeta Sizer Ultra); assay type: physicochemical; details: in water, 0.04 mg/mL BCG, 100 uM Fe(NO3)3, measured immediately
Description: Zeta potential was measured immediately using a Zeta Sizer Ultra (Malvern).

[2] = system: CT26.WT (mouse colon adenocarcinoma) tumors; set-up: species or system male BALB/C mice; details: in vivo

Compound | cell kill (T24 cells) [%] | zeta potential [1] | survival [2] | tumor growth [2]
O=[N+]([O-])[O-].O=[N+]([O-])[O-].O=[N+]([O-])[O-].[Fe+3] [Fe^3+, Fe(NO3)3] | 1.4 | not detectable | – | –
Ru(4,4′-dimethyl-2,2′-bipyridine)2(2-(2′,2″:5″,2′″-terthiophene)-imidazo[4,5-f][1,10]phenanthroline) [RUVIDAR] | – | – | significantly increases survival, but the effect size is small | tumor growth suppression

From patent US20250375511A1 (priority 2024, published 2025)
